In PubChem BioAssay (NCI):
“And” between values parts separate entries of the source, which are not always exact repeats. Identical values can stand only once.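 Cultured in 96-well plates, cells were exposed to test compound for 48 hours across five concentrations. GI50 is the concentration that inhibits growth by half. TGI is the concentration that stops growth completely.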

Key:
Assay in all cases: NCI tumour cell line growth inhibition, 48 h
MCF7 breast = test system: MCF7 breast
K-562 leukemia = test system: K-562 leukemia
M14 melanoma = test system: M14 melanoma
UACC-62 melanoma = test system: UACC-62 melanoma
SW-620 colon = test system: SW-620 colon
HT29 colon = test system: HT29 colon
MDA-MB-435 = test system: MDA-MB-435
A498 renal = test system: A498 renal
UO-31 renal = test system: UO-31 renal
SK-OV-3 ovarian = test system: SK-OV-3 ovarian

Row | SMILES | TGI (MCF7 breast) | TGI (K-562 leukemia) | TGI (M14 melanoma) | TGI (UACC-62 melanoma) | TGI (SW-620 colon) | GI50 (HT29 colon) | TGI (HT29 colon) | TGI (MDA-MB-435) | TGI (A498 renal) | GI50 (UO-31 renal) | TGI (UO-31 renal) | TGI (SK-OV-3 ovarian) | GI50 (MCF7 breast) | GI50 (K-562 leukemia) | GI50 (M14 melanoma) | GI50 (UACC-62 melanoma) | GI50 (SW-620 colon) | GI50 (MDA-MB-435) | GI50 (A498 renal) | GI50 (SK-OV-3 ovarian)
1 | COc1cc2c(cc1OC)C1Cc3cc(OC)c(OC)cc3C(C2)N1C | > 75 µM | > 100 µM | > 100 µM | > 75 µM | > 100 µM | 23.5 µM and 54 µM | > 100 µM | > 75 µM | > 100 µM | 19.7 µM and 40.5 µM | > 100 µM | > 75 µM | – | – | – | – | – | – | – | –
2 | CCOc1cccc(-c2nc(N)nc(Nc3ccccc3SSc3ccccc3Nc3nc(N)nc(-c4cccc(OCC)c4)n3)n2)c1 | > 100 µM | > 100 µM | > 100 µM | 5.29 µM | > 100 µM | 55.8 µM | > 100 µM | > 100 µM | > 100 µM | 1.68 µM | 3.16 µM | > 100 µM | 4.97 µM | 3.33 µM | 4.1 µM | 2.28 µM | 4.56 µM | 8.1 µM | 8.24 µM | 4.87 µM
3 | CC(=O)N1N=C2/C(=C/c3ccc(Cl)cc3)CC(C)CC2C1c1ccc(Cl)cc1 (centres undefined) | 54.2 µM | 65.8 µM | 35.3 µM | 52.2 µM | 57.7 µM | 21.7 µM | 91.5 µM | > 100 µM | 28.7 µM | 15.1 µM | 30.5 µM | 59.6 µM | 19.2 µM | 13.8 µM | 17.7 µM | 21.1 µM | 19.3 µM | 30.9 µM | 13 µM | 20.4 µM
4 | CC1(C)[C@@H](OC(=O)CCC(=O)O)CC[C@]2(C)[C@H]3C(=O)C=C4[C@@H]5C[C@@](C)(C(=O)O)CC[C@]5(C)CC[C@@]4(C)[C@]3(C)CC[C@@H]12 | 136 µM | 230 µM | 129 µM | 60.6 µM | 126 µM | 56.1 µM | 130 µM | 98.8 µM | 68 µM | 60.1 µM | 81.6 µM | 127 µM | 54.7 µM | 56.2 µM | 58.4 µM | 48.1 µM | 59.2 µM | 58.2 µM | 49.2 µM | 59.4 µM
5 | Cc1cc(C(C)(C)C)cc(CNC2CCCCC2)c1O | 32.3 µM | 51.3 µM | 29.4 µM | 29.6 µM | 40.4 µM | – | 33.7 µM | 43.4 µM | 30.3 µM | – | 28.2 µM | 41.9 µM | – | – | – | – | – | – | – | –
6 | NCC1OC(OC2C(CO)OC(OC3C(O)C(N)CC(N)C3OC3OC(CO)C(O)CC3N)C2O)C(N)C(O)C1OC1OC(CO)C(O)C(O)C1O (centres undefined) | > 50 µg/mL | > 50 µg/mL | > 50 µg/mL | > 50 µg/mL | > 50 µg/mL | > 50 µg/mL | > 50 µg/mL | > 50 µg/mL | > 50 µg/mL | > 50 µg/mL | > 50 µg/mL | > 50 µg/mL | > 50 µg/mL | > 50 µg/mL | > 50 µg/mL | > 50 µg/mL | > 50 µg/mL | > 50 µg/mL | > 50 µg/mL | > 50 µg/mL
7 | CS(=O)(=O)CC(=O)c1ccccc1 | > 100 µM | > 100 µM | > 100 µM | > 100 µM | > 100 µM | – | > 100 µM | > 100 µM | > 100 µM | – | > 100 µM | > 100 µM | – | – | – | – | – | – | – | –
8 | Cc1ccc2c(c1)S(=O)(=O)c1ccc3ccccc3c1N2 | > 100 µM | > 100 µM | > 100 µM | > 100 µM | > 100 µM | – | > 100 µM | > 100 µM | > 100 µM | – | > 100 µM | > 100 µM | – | – | – | – | – | – | – | –
9 | COc1ccc(C2C(C)C(=O)C(C)C(c3ccc(OC)cc3)N2N=O)cc1 (centres undefined) | > 1000 µM | > 1000 µM | 750 µM and > 732 µM | > 750 µM | > 1000 µM | – | > 1000 µM | 343 µM | > 40.9 µM and 424 µM | – | > 1000 µM | > 82.5 µM and 626 µM and 980 µM | – | > 750 µM | – | > 750 µM | > 750 µM | – | – | > 47.5 µM and 220 µM
10 | c1ccc2cc(C[n+]3ccn(CCCCCCCCCCn4cc[n+](Cc5ccc6ccccc6c5)c4)c3)ccc2c1 | 2.3 µM | 2.97 µM | 15.7 µM | 3.08 µM | 11.2 µM | 0.715 µM | 4.74 µM | 5.43 µM | 2.77 µM | 6.14 µM | > 100 µM | 6.39 µM | 0.554 µM | 0.602 µM | 2.76 µM | 0.646 µM | 1.57 µM | 0.819 µM | 0.0129 µM | 1.36 µM
11 | CCCCCCCCCCCCOC1C(CNC(=O)C2OC3OC(C)(C)OC3C2NC(=O)Nc2ccc(CC(=O)NC(Cc3ccccc3)C(=O)O)cc2)OC2OC(C)(C)OC21 (centres undefined) | > 25 µM | > 25 µM | > 25 µM | > 25 µM | > 25 µM | > 25 µM | > 25 µM | > 25 µM | > 25 µM | > 25 µM | > 25 µM | > 25 µM | > 25 µM | > 25 µM | > 25 µM | > 25 µM | > 25 µM | > 25 µM | > 25 µM | > 25 µM
12 | CCCCCCCCC(=O)OCC(CS[As](C)C)OC(=O)CCCCCCCC (centres undefined) | 8.2 µM | 12.9 µM | 12.7 µM | 15 µM | 14.9 µM | 1.51 µM | 17.3 µM | 0.652 µM | 10.7 µM | 3.46 µM | > 39.9 µM | > 67.6 µM | 0.477 µM | 0.342 µM | 0.831 µM | 0.904 µM | 0.349 µM | 0.196 µM | 2.38 µM | 16.5 µM
13 | Cc1c(O)c2c(c(O)c1Br)C(=O)C=CC2=O | 0.399 µM and 1.54 µM | 0.66 µM and 0.334 µM | 1.11 µM and 2.28 µM | 2.1 µM and 3.21 µM | 0.364 µM and 2.27 µM | 0.602 µM | 1.1 µM and 2.8 µM | 0.451 µM | 3.18 µM and 3.87 µM | 1.38 µM | 1.23 µM and 2.95 µM | 3.93 µM and 27.1 µM | 0.41 µM | 0.0599 µM | 1.01 µM | 1.44 µM | 0.449 µM | – | – | 14.1 µM
14 | COc1cc(-c2c(C#N)c(N)nc(N3CCOCC3)c2C#N)cc(OC)c1OC | > 100 µM | > 100 µM | > 100 µM | > 100 µM | > 100 µM | > 100 µM | > 100 µM | > 100 µM | > 100 µM | 96.1 µM | > 100 µM | > 100 µM | > 100 µM | > 100 µM | > 100 µM | 36.9 µM | > 100 µM | > 100 µM | > 100 µM | 81.1 µM
